Data set [1] is described as follows: Solubility Determination Assay (PBS pH 1.6 and pH 7.4). Format: physicochemical. To be noted: PBS buffer, aqueous buffer, kinetic from dmso stock, 2 hours shaking. As to the method:
Example 31: Solubility Determination Assay
The stock solutions of test compounds and control compound progesterone were prepared in DMSO at the concentrations of 10 mM. 15 μL of stock solution (10 mM) of each sample was placed in order into their proper 96-well rack. 485 μL of PBS pH 1.6 and pH 7.4 were added into each vial of the cap-less Solubility Sample plate. The assay was performed in singlet. One stir stick was added to each vial and then the vial was sealed using a molded PTFE/Silicone plug. The solubility sample plates were then transferred to the Eppendorf Thermomixer Comfort plate shaker and shaken at 25° C. at 1100 rpm for 2 hours. After completion of the 2 hours, plugs were removed and the stir sticks were removed using a big magnet. The samples from the Solubility Sample plate were transferred into the filter plate. Using the Vacuum Manifold, all the samples were filtered. An aliquot of 5 μL was taken from the filtrate followed by addition of 495 μL of a mixture of H2O and acetonitrile containing internal standard (1:1). A certain proportion of ultrapure water was used to dilute the diluent according to the peak shape. The dilution factor was changed according to the solubility values and the LC-MS signal response.
From the 10 mM DMSO STD plate, 6 μL was transferred into the remaining empty plate, and then 194 μL of DMSO were added to that plate to have a STD concentration of 300 μM. From the 300 μM DMSO STD plate, 5 μL were transferred into the remaining empty plate, and then 495 μL of a mixture of H2O and acetonitrile containing internal standard (1:1) were added to that plate to have a final STD concentration of 3 μM. A certain proportion of ultrapure water was used to dilute the diluent according to the peak shape. The concentrations of the standard samples were changed according to the LC-MS signal response.
The plate was placed into the well plate autosampler. The samples were evaluated by LC-MS/MS analysis.
All calculations were carried out using Microsoft Excel.
The filtrate was analyzed and quantified against a standard of known concentration using LC coupled with mass spectral peak identification and quantitation. Solubility values of the test compound and control compound were calculated as follows: […]
Any value of the compounds that was not within the specified limits was rejected and the experiment was repeated.
“+++” indicates a solubility value equal to or greater than […] “++” indicates a solubility value between 0.1 and 1 μM and “+” indicates a solubility value less than 0.1 μM.

Another data set has as its target T1, AHR (Homo sapiens, UniProt P35869).
T1 construct: other cell line with a DRE-luciferase reporter stably transfected; endogenous in cells; host or cells: Human HepG2 liver carcinoma AhR-Lucia reporter cells
T1 sequence (P35869 11-848): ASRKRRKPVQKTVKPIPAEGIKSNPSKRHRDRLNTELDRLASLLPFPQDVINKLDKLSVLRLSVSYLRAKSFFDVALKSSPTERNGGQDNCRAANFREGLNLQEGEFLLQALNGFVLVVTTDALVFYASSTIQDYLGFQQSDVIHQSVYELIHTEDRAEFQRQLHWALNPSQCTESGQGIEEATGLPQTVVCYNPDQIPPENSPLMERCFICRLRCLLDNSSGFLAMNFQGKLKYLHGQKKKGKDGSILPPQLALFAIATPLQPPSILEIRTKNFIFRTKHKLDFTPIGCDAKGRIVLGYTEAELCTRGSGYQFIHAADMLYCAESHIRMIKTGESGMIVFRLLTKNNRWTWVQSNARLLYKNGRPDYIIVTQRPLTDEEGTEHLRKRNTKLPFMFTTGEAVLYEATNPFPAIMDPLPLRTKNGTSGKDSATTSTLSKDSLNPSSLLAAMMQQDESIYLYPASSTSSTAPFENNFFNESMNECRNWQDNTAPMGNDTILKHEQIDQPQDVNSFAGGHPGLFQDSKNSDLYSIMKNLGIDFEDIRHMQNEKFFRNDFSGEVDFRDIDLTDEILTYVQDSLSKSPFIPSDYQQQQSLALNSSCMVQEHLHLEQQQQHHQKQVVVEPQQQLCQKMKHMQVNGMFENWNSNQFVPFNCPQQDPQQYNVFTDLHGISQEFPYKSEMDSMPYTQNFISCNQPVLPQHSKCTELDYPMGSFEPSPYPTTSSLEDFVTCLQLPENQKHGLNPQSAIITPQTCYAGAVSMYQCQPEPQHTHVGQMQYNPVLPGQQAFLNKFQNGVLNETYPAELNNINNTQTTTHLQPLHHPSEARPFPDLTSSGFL
The data set can be described thus: DRE-Luciferase Reporter Assay (HepG2 AhR-Lucia reporter cells). Format: cell-based. To be noted: AHR activating ligand at its EC50, luciferase read-out, read-out: HEPG2 Luc IC50. The text has this: Example 27: DRE-Luciferase Reporter Assay
AHR binds to Dioxin Responsive Elements (DRE) upstream of genes that it activates. One measure of AHR activity is activation of a reporter gene, such as luciferase, downstream of one or multiple DRE elements. Luciferase activity will reflect activation and inhibition of AHR in the cells expressing his reporter. 20000 Human HepG2 liver carcinoma—AhR-Lucia reporter cells or Human HT29 colon adenocarcinoma—AhR reporter cells or other cell line with a DRE-luciferase reporter stably transfected were plated in Eagle's Minimal Essential Medium, 10% heat-inactivated FBS, 1×non-essential amino acids Pen-Strep (10,000 U/mL) and Normocin (100 ug/mL) in plates (96-well, 384-well or other plates) and incubated overnight at 37° C. in a CO2 incubator and treated with and without AhR antagonists at a log dilution starting at 100 uM.
After 1 hr that cells were plated an AHR activating ligand, such as TCDD, kynurenine, ITE (2-(1H-indole-3-ylcarbonyl)-4-thiazolecarboxylic methyl ester), VAF347, BNF (beta-naphthoflavone), FICZ (6-formylindolo(3,2-b) carbazole) or other AHR ligands at their specific EC50 concentration, were added to the cells with or without AHR antagonist.
Cells were incubated for 24 or 48 hours or another time point and then, supernatant was analyzed for determination of luciferase activity as a read-out of the AHR activation or inhibition. Luciferase was measured with the commercial kit QUANTI-Luc™ assay solution kit from Invivogen following the manufacturer's instructions.
The level of luciferase with only agonist ligand added was the maximum signal while the luciferase with […] was the minimum signal. IC50 values were determined as the concentration which inhibits half of the luciferase activity. “A” indicates an IC50 value less than 100 nM, “B” indicates an IC50 between 100 and 500 nM, “C” indicates an IC50 above 500 nM.
On the technique in general: Reporter assays use an easily measured gene product as a stand-in for the process of interest.

pIC50: −log10 of the molar value. Like-named read-outs stand apart in the source and are kept apart here.

Usually solubility stands for how much of the substance goes into solution per volume. Broadly, the pIC50 is the IC50 on a negative log10 scale, so that one unit is a factor of ten. Turning to `Cc1ccccc1-c1cc2ncc(NC(=O)c3ccnn3C)cc2[nH]1` [Product 49, 1-methyl-N-(2-(o-tolyl)-1H-pyrrolo[3,2-b]pyridin-6-yl)-1H-pyrazole-5-carboxamide], the solubility at 2 h in data set [1] (PBS pH 1.6, 25° C., read-out: Aq. Solubility at pH = 1.6) is ≥ 1 µM; in data set [1] (PBS pH 7.4, 25° C., read-out: Aq. Solubility at pH = 7.4) it was ≥ 1 µM. The pIC50 at AHR is 6.30 to 7.00.

The record behind these values is patent publication US20230234967A1, “Fused Azole Heterocycles as AHR Antagonists” (Senda Biosciences, Inc., priority 2021, published 2023).
